Assay results from BindingDB's records for doi:10.1021/jm00041a011 (Ohio State University, 1994).
Several values for one entry are separate records, joined by “and”; a condition that tells them apart may be missing. Equal values may be shown once. Where a name gives a salt, the structure may show the parent alone.

Experiment: Tested for its ability to antagonize epinephrine induced primary wave aggregation in human platelets at alpha-2A-adrenergic receptor sites.

Compound	IC50
OC(c1cnc[nH]1)(c1cccc2ccccc12)C(F)(F)F (stereo unspecified) [2,2,2-Trifluoro-1-(1H-imidazol-4-yl)-1-naphthalen-1-yl-ethanol; hydrochloride]	> 300 µM
CC(c1cnc[nH]1)c1cccc2ccccc12 (stereo unspecified) [4-(1-Naphthalen-1-yl-ethyl)-1H-imidazole]	12.3 µM and 9.1 µM
COC(c1cnc[nH]1)c1cccc2ccccc12 (stereo unspecified) [4-(Methoxy-naphthalen-1-yl-methyl)-1H-imidazole; hydrochloride]	380 µM
c1ccc2c(Cc3cnc[nH]3)cccc2c1 [4-Naphthalen-1-ylmethyl-1H-imidazole; hydrochloride]	3 µM
OC(c1cnc[nH]1)c1cccc2ccccc12 (stereo unspecified) [(1H-Imidazol-4-yl)-naphthalen-1-yl-methanol; hydrochloride]	61.9 µM
O=C(c1cnc[nH]1)c1cccc2ccccc12 [(1H-Imidazol-4-yl)-naphthalen-1-yl-methanone; oxalic acid]	580 µM
